“Also recorded” adds a separate entry of the source.

One assay concerns V3 loop peptide V3HxBc2. As to the kind of experiment: Direct ELISA: CX4-M1 variants binding to V3 loop peptide. Further details: species or system HIV-1. The note with it: variants 0.5 μM, fluoresceinylated V3HxBc2, relative to CX4-M1. As for the experimental part:
(§1) High binding microtiter plates (Immulon 2HB) were coated overnight at 4°C with streptavidin (4 μg/mL) in 0.1 M sodium carbonate buffer pH 9.5. Unspecific binding was blocked with 1% BSA in 0.1 M phosphate buffer pH 7.2, 200 μL/well for 1 h. All following steps were performed using 0.1 M phosphate buffer pH 7.2 containing 1% BSA (ELISA with V3 loop peptides) and 0.1% BSA (ELISA with gp120), respectively, as well as 0.01% Tween 20. Plates were incubated with 100 μL CX4-M1 variants (0.5 μM for binding to V3 loop peptides, 2.5 μM for binding to gp120), or biotin alone as a blank, for 2 h. Plates were then incubated for 3 h with fluoresceinylated V3 loop peptides (250 or 100 nM), or gp120 (8.3 nM, either with or without 8.3 nM sCD4). V3 loop peptides were detected using 100 μL/well mouse anti-fluorescein-HRP conjugate from antibodies online (3 μg/mL) for 1 h. Gp120 was detected using a two antibody system. Sheep anti-gp120 (D7324) from Aalto Bio Reagents (0.2 μg/mL) was added for 1 h, followed by a 1 h incubation with rabbit anti-sheep-HRP conjugate from Dianova (3 μg/mL), 100 μL/well. Plates were washed four times with 0.01% Tween 20 in 0.1 M phosphate buffer pH 7.2 (300 μL/well) after each incubation step. Plates were developed with 100 μL/well OPD (1 mg/mL) in the presence of 0.03% H2O2 for approximately 1.5 min (V3 loop peptide detection), or 3.5 min (gp120 detection) in the dark. After the reaction was stopped with 50 μL/well 2 M H2SO4, absorbances were read at 492 nm and corrected for the blank (sample with biotin instead of CX4-M1). All data points present means of at least duplicates.

Assay [1] concerns the target T1, CXCR4 mimetic peptide CX4-M1 (Homo sapiens, UniProt P61073). The assay can be described thus: SPR: binding of V3 loop peptides to captured CX4-M1. The following applies: SPR Biacore X100; CX4-M1 (2 μM) bound to streptavidin; V3 loop peptides 5–0.3 μM; HBS-N pH 7.4, 0.05% Tween 20, 100 mM MgCl2.
Protocol: (§2) All measurements were performed using a Biacore X100 instrument in conjunction with the Biotin CAPture Kit (both from GE Healthcare). Sensor chip CAP was hybridized with a 1:10 dilution of CAPture reagent (streptavidin conjugate) in running buffer. […] For dehybridization, a regeneration solution of 6 M guanidinium chloride and 250 mM sodium hydroxide was used. HBS-N buffer (10 mM HEPES, 150 mM sodium chloride, pH 7.4) containing 0.05% Tween 20, as well as 100 mM (V3 loop peptides) or 2.5 mM (gp120) magnesium chloride, was used as running buffer. Measurement and data evaluation was performed using Biacore X100 Control Software (Version 2.0) and Biacore X100 Evaluation Software (Version 2.0), respectively.
In assay [2] the target is T1, CXCR4 mimetic peptide CX4-M1. As to the kind of experiment: Direct ELISA: fluoresceinylated V3 loop peptides binding to CX4-M1. The note with it: for binding of V3 loop peptide to CX4-M1 (direct ELISA): CX4-M1 0.5 μM on streptavidin plate, fluoresceinylated V3 loop peptides 250 or 100 nM, 3 h, absorbance 492 nm; for effect of alanine substitution in V3HxBc2 on binding to CX4-M1: direct ELISA, relative to V3HxBc2. As for the experimental part: as §1

For another assay, the target named is T2, gp120MN (Human immunodeficiency virus type 1 group M subtype B, UniProt P05877).
T2 construct: gp120MN, gp120ADA, and gp120HxBc2 from Immune Technology; purchased Immune Technology
The assay can be described thus: SPR: binding of gp120 to captured CX4-M1. Further details: species or system HIV-1.

Assay [3] addresses T3, gp120HxBc2 (Human immunodeficiency virus type 1 group M subtype B, UniProt P04578).
T3 construct: gp120MN, gp120ADA, and gp120HxBc2 from Immune Technology; purchased Immune Technology
The assay can be described thus: SPR: binding of gp120 to captured CX4-M1. Further details: species or system HIV-1.
Protocol: as §2

Assay [4] addresses T3, gp120HxBc2. The format is binding, HIV-1. The note with it: direct ELISA; variants 2.5 μM; gp120 8.3 nM in the presence of sCD4; relative to CX4-M1. As for the experimental part: as §1

Protocol for gp120MN: as §2

For the compound “Ac-ECL1-X-B-X-DRYICDRFYPNDLWA-X-B-X-ECL3-X-K(Bio)-NH2 (disulfide) [CX4-M1 V196A, alanine substitution variant of ECL2 of CX4-M1]”, in the assay with V3 loop peptide V3HxBc2, the “effect of alanine substitution in ECL2 of CX4-M1 on binding to V3HxBc2” value (“effect of alanine substitution … to V3HxBc2” below) is reported as “enhancement of binding”.

On to “Fluo-X-G-X-CTRPNNNTRKSIHI–GPGRAFYTTGEIIGDIRQAHC-NH2 (disulfide) [Peptide V3ADA, fluoresceinylated peptide presenting the V3 loop of gp120 from R5-tropic HIV-1 ADA]”, for which, in assay [1], the “KD (V3 loop peptide) to CX4-M1” value is “No binding”. As to “Fluo-X-G-X––––-C^dRIRIQRGPGRAFVTIC^d–––––-NH2 (disulfide) [V3HxBc2 turn/beta, truncated variant of V3HxBc2 presenting the turn region and the two beta strands]”, the “binding of V3 loop peptide to CX4-M1 (direct ELISA)” value (“binding of V3 loop peptide” for short) in assay [2] was “retained some of the affinity”.

On to `CC[C@H](C)[C@@H]1NC(=O)[C@H](Cc2ccc(O)cc2)NC(=O)[C@H](CCCNC(=N)N)NC(=O)[C@H](CC(=O)O)NC(=O)CCCCCNC(=O)CCNC(=O)CCCCCNC(=O)[C@H](CCCCN)NC(=O)[C@@H](NC(=O)[C@H](CC(C)C)NC(=O)[C@H](Cc2ccccc2)NC(=O)[C@H](CC(N)=O)NC(=O)CNC(=O)[C@H](Cc2ccccc2)NC(=O)[C@H](Cc2ccc(O)cc2)NC(=O)[C@H](Cc2c[nH]c3ccccc23)NC(=O)[C@H](CC(N)=O)NC(=O)[C@H](C)NC(=O)[C@@H](NC(=O)[C@H](C)NC(=O)[C@H](CC(=O)O)NC(C)=O)C(C)C)CSSC[C@@H](C(=O)N[C@@H](CC(=O)O)C(=O)N[C@@H](CCCNC(=N)N)C(=O)N[C@@H](Cc2ccccc2)C(=O)N[C@@H](Cc2ccc(O)cc2)C(=O)N2CCC[C@H]2C(=O)N[C@@H](CC(N)=O)C(=O)N[C@@H](CC(=O)O)C(=O)N[C@@H](CC(C)C)C(=O)N[C@@H](Cc2c[nH]c3ccccc23)C(=O)N[C@H](C(=O)NCCCCCC(=O)NCCC(=O)NCCCCCC(=O)N[C@@H](CC(=O)O)C(=O)N[C@@H](CO)C(=O)N[C@@H](Cc2ccccc2)C(=O)N[C@H](C(=O)N[C@@H](CC(C)C)C(=O)N[C@@H](CC(C)C)C(=O)N[C@@H](CCC(=O)O)C(=O)N[C@H](C(=O)N[C@H](C(=O)N[C@@H](CCCCN)C(=O)N[C@@H](CCC(N)=O)C(=O)NCC(=O)N[C@@H](CO)C(=O)N[C@@H](CCC(=O)O)C(=O)N[C@@H](Cc2ccccc2)C(=O)N[C@@H](CCC(=O)O)C(=O)N[C@@H](CC(N)=O)C(=O)N[C@H](C(=O)N[C@H](C(=O)N[C@@H](Cc2c[nH]cn2)C(=O)N[C@@H](CCCCN)C(=O)NCCCCCC(=O)N[C@@H](CCCCNC(=O)CCCC[C@@H]2SC[C@@H]3NC(=O)N[C@@H]32)C(N)=O)C(C)C)[C@@H](C)O)[C@@H](C)CC)[C@@H](C)CC)[C@@H](C)CC)C(C)C)NC1=O` [CX4-M1], for which the Kd worked out at 700 nM on gp120MN and 200 nM at gp120HxBc2 [3]. In the case of “Fluo-X-G-X-CTRPNNNTRKRIRIQRGPGRAFATIGKIGNMRQAHC-NH2 (disulfide) [V3HxBc2 V318A, alanine scan variant of V3HxBc2]”, in assay [2], the “effect of alanine substitution in V3HxBc2 on binding to CX4-M1” value (“effect of alanine substitution … to CX4-M1” for short) is given as “strongly diminished binding”. Regarding “Ac-ECL1-X-B-X-DRYICDRFYPNDAWV-X-B-X-ECL3-X-K(Bio)-NH2 (disulfide) [CX4-M1 L194A, alanine substitution variant of ECL2 of CX4-M1]”, in the assay with V3 loop peptide V3HxBc2, the “effect of alanine substitution … to V3HxBc2” value is “enhancement of binding”. Also, on gp120HxBc2 [4], the “effect of alanine substitution in ECL2 of CX4-M1 on binding to gp120HxBc2” value (“effect of alanine substitution … to gp120HxBc2” for short) was “negative effect on the affinity; also recorded: attenuated binding”.

For the compound “Ac-ECL1-X-B-X-DRAICDRFYPNDLWV-X-B-X-ECL3-X-K(Bio)-NH2 (disulfide) [CX4-M1 Y184A, alanine substitution variant of ECL2 of CX4-M1]”, in the assay on V3 loop peptide V3HxBc2, the “effect of alanine substitution … to V3HxBc2” value is reported as “enhancement of binding”. The “effect of alanine substitution … to gp120HxBc2” value on gp120HxBc2 [4] is listed as “attenuated binding”. Regarding “Fluo-X-G-X-CTRPNNNTRKRIAIQRGPGRAFVTIGKIGNMRQAHC-NH2 (disulfide) [V3HxBc2 R308A, alanine scan variant of V3HxBc2]”, the “effect of alanine substitution … to CX4-M1” value in assay [2] was “strongly diminished binding”. For the compound “Ac-ECL1-X-B-X-DRYICDRFAPNDLWV-X-B-X-ECL3-X-K(Bio)-NH2 (disulfide) [CX4-M1 Y190A, alanine substitution variant of ECL2 of CX4-M1]”, the “effect of alanine substitution … to V3HxBc2” value in the assay with V3 loop peptide V3HxBc2 is given as “enhancement of binding”. On gp120HxBc2 [4], the “effect of alanine substitution … to gp120HxBc2” value is reported as “attenuated binding”. For the compound “Fluo-X-G-X––––––-C^dQRGPGRAC^d–––––––-NH2 (disulfide) [V3HxBc2 turn, truncated variant of V3HxBc2 presenting only the turn region]”, the “binding of V3 loop peptide” value in assay [2] is recorded as “complete loss of binding”. For the compound “Fluo-X-G-X-CTRPNNNTRKRARIQRGPGRAFVTIGKIGNMRQAHC-NH2 (disulfide) [V3HxBc2 I307A, alanine scan variant of V3HxBc2]”, the “effect of alanine substitution … to CX4-M1” value in assay [2] is given as “strongly diminished binding”. Same read-out and setting: the entry for “Fluo-X-G-X-CTRPNNNTRKRIRAQRGPGRAFVTIGKIGNMRQAHC-NH2 (disulfide) [V3HxBc2 I309A, alanine scan variant of V3HxBc2]” is “strongly diminished binding”.

As to “Yc-X-G-X-CTRPNNNTRKSIHI–GPGRALYTTGEIIGDIRQAHC-NH2 (disulfide) [Peptide V3BAL, fluoresceinylated peptide presenting the V3 loop of gp120 from R5-tropic HIV-1 BAL]”, the “KD (V3 loop peptide) to CX4-M1” value in assay [1] is recorded as “No binding”. For “Fluo-X-G-X-CTRPNNNTRKRIRIQRGPGRAAVTIGKIGNMRQAHC-NH2 (disulfide) [V3HxBc2 F317A, alanine scan variant of V3HxBc2]”, in assay [2], the “effect of alanine substitution … to CX4-M1” value is “strongly diminished binding”. Turning to “Fluo-X-G-X-CTRPNNNTRK––QRGPGRA–-GKIGNMRQAHC–NH2 (disulfide) [V3HxBc2 Δbeta]”, the “binding of V3 loop peptide” value in assay [2] is listed as “complete loss of binding”. For the compound “Fluo-X-G-X-CTRPNNNTRKRIRIQRGPGRAFVTAGKIGNMRQAHC-NH2 (disulfide) [V3HxBc2 I320A, alanine scan variant of V3HxBc2]”, the “effect of alanine substitution … to CX4-M1” value in assay [2] was “strongly diminished binding”.

(Values after paper PMC3760305, “Mimicking Protein–Protein Interactions through Peptide–Peptide Interactions: HIV-1 gp120 and CXCR4” (Frontiers in Immunology, 2013).)
